How the values were obtained:
[1] = target: T1, human Adenosine A3 receptor (Homo sapiens, UniProt P0DMS8); test: Adenosine receptor TR-FRET binding assay (CA200645 displacement), A3
T1 sequence (P0DMS8 1-318): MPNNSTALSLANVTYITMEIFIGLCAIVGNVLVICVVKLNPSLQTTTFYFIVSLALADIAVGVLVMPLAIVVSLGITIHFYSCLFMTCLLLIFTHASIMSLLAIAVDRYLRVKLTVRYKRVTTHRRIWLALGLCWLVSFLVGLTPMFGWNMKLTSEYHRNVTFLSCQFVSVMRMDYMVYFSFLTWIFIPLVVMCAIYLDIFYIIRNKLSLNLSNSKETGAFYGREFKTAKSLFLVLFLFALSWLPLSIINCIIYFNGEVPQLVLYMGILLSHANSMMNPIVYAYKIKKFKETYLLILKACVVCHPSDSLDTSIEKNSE

[2] = target: T2, human Adenosine A2b receptor (Homo sapiens, UniProt P29275); test: Adenosine receptor TR-FRET binding assay (CA200645 displacement), A2b; conditions: 30 nM CA200645, CHO cell membranes, 2 hours at room temperature
T2 construct: expressed in transfected cells; host or cells: CHO cell membranes
T2 sequence (P29275 1-332): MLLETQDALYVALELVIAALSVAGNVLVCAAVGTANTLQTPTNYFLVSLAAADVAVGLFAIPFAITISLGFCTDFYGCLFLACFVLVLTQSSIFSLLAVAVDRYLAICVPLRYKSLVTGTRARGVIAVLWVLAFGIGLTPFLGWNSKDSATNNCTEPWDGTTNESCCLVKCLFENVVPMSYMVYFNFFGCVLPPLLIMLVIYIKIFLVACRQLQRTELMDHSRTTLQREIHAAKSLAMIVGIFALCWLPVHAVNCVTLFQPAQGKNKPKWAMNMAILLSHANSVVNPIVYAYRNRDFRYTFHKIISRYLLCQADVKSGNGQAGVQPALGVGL

[3] = test system: CD8+ T cells in human whole blood; test: Measurement of pCREB in CD8+ T cells in human whole blood; format: cell-based; conditions: T-cell, 1 h; heparinised human whole blood, rolipram, 3 μM NECA, 60 min, phospho-CREB in CD8+ T cells by FACS
Procedure, shortened: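 Heparinised human whole blood preincubated 20 min at 37 °C with serially diluted A2a antagonists plus rolipram, then stimulated 60 min with 3 μM NECA (final). After fixation and RBC lysis, permeabilized leukocytes stained for phospho-CREB and CD8; pCREB in CD8+ T cells read by flow cytometry.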

[4] = target: T3, human Adenosine A1 receptor (Homo sapiens, UniProt P30542); test: Adenosine receptor TR-FRET binding assay (CA200645 displacement), A1
T3 sequence (P30542 1-326): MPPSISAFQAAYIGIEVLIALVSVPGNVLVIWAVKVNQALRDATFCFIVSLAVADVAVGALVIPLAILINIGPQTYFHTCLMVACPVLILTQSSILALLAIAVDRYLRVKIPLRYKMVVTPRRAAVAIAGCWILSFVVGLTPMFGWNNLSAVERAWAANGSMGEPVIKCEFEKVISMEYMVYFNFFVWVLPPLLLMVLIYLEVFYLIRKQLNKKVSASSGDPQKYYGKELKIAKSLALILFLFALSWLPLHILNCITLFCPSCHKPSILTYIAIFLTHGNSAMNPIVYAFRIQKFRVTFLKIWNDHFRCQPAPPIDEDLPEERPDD

[5] = target: T4, human Adenosine A2a receptor (Homo sapiens, UniProt P29274); test: Adenosine receptor TR-FRET binding assay (CA200645 displacement), A2a; conditions: 100 nM CA200645, CHO cell membranes, 2 hours at room temperature
T4 construct: expressed in transfected cells; host or cells: CHO cell membranes

human PBMCs = test: CD3/CD28 stimulated IL-2 release NECA reversal assay in human PBMCs; format: cell-based; conditions: PBMC, CD3/CD28 antibody stimulated, 1 uM NECA, 24 hours, IL-2 in culture supernatant;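 note: dose-response as % inhibition where 100% equals no-NECA control wells with CD3/CD28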
Procedure, shortened: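 PBMCs from citrated donor blood, 50,000 cells/well on plate-bound CD3 antibody (1 ug/ml), with 1 ug/ml CD28 antibody, 1 uM NECA and antagonist at 0.003-10 μM final. After 24 h at 37° C, supernatant IL-2 was measured by MSD immunoassay.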

T4 sequence (P29274 whole entry): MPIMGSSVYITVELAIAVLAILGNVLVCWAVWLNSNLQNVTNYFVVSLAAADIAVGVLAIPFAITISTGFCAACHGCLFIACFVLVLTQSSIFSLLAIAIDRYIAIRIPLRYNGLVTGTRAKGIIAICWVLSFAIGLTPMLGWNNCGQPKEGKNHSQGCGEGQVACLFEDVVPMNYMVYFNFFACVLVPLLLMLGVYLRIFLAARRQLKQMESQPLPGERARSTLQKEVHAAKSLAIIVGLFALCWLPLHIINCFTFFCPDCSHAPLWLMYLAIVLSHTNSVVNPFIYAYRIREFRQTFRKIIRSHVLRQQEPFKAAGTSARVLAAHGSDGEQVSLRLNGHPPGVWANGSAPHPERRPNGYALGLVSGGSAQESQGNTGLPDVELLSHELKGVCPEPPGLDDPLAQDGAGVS

SMILES	Ki [1]	Ki [2]	IC50 [3]	Ki [4]	Ki [5]	IC50 (human PBMCs)
Cc1cc(-c2c(-c3cccc(C#N)c3)nn3ccc(C(=O)NCC(C)(C)O)nc23)cc(C)n1 [Example 10, 2-(3-Cyanophenyl)-3-(2,6-dimethyl-4-pyridyl)-N-(2-hydroxy-2-methyl-propyl)pyrazolo[1,5-a]pyrimidine-5-carboxamide]	> 1000 nM	19 nM	80 nM	236 nM	0.4 nM	6 nM
Cc1cc(-c2c(-c3cccc(C#N)c3)nn3ccc(C(N)=O)nc23)cc(Cl)n1 [Example 5.6]	> 1000 nM	16 nM	8540 nM	303 nM	4.6 nM	16 nM
Cc1cc(-c2c(-c3cccc(C#N)c3)nn3ccc(C(=O)N[C@H]4C[C@H](O)C4)nc23)cc(Cl)n1 [Example 6.19, 3-(2-Chloro-6-methyl-4-pyridyl)-2-(3-cyanophenyl)-N-(trans-3-hydroxycyclobutyl)pyrazolo[1,5-a]pyrimidine-5-carboxamide]	> 1000 nM	22 nM	470 nM	456 nM	0.3 nM	26 nM
Cc1cc(-c2c(-c3cccc(C#N)c3)nn3ccc(NC4CCN(S(C)(=O)=O)CC4)nc23)cc(Cl)n1 [Example 2.11]	> 1000 nM	34 nM	1330 nM	176 nM	1.5 nM	5 nM
CO[C@H]1CN(C)C[C@@H]1NC(=O)c1ccn2nc(-c3cccc(C#N)c3)c(-c3cc(C)nc(Cl)c3)c2n1 [Example 6.14, 3-(2-Chloro-6-methyl-4-pyridyl)-2-(3-cyanophenyl)-N-[(3S,4S)-4-methoxy-1-methyl-pyrrolidin-3-yl]pyrazolo[1,5-a]pyrimidine-5-carboxamide]	> 1000 nM	60 nM	370 nM	231 nM	1.1 nM	18 nM
Cc1cc(-c2c(-c3cccc(C#N)c3)nn3ccc(N/C(=N\C#N)NCC(C)(C)O)nc23)cc(Cl)n1 [Example 32.2, 1-[3-(2-Chloro-6-methyl-4-pyridyl)-2-(3-cyanophenyl)pyrazolo[1,5-a]pyrimidin-5-yl]-2-cyano-3-(2-hydroxy-2-methyl-propyl)quanidine]	> 1000 nM	5 nM	490 nM	29 nM	0.8 nM	16 nM
Cc1cc(-c2c(-c3cccc(C#N)c3C)nn3ccc(C(=O)N[C@H](C)C(C)(C)O)nc23)cc(C)n1 [Example 104, 2-(3-Cyano-2-methyl-phenyl)-3-(2,6-dimethyl-4-pyridyl)-N-[(1R)-2-hydroxy-1,2-dimethyl-propyl]pyrazolo[1,5-a]pyrimidine-5-carboxamide]	> 1000 nM	330 nM	190 nM	735 nM	0.9 nM	10 nM
Cc1cc(-c2c(-c3cccc(C#N)c3)nn3ccc(C(=O)NC(C)(C)C(C)(C)O)nc23)cc(Cl)n1 [Example 6.23, 3-(2-Chloro-6-methyl-4-pyridyl)-2-(3-cyanophenyl)-N-(2-hydroxy-1,1,2-trimethyl-propyl)pyrazolo[1,5-a]pyrimidine-5-carboxamide]	> 1000 nM	74 nM	330 nM	223 nM	0.4 nM	5.7 nM
Cc1cc(-c2c(-c3cccc(C#N)c3)nn3ccc(C(=O)NCC4(C)CCCNC4)nc23)cc(Cl)n1 (stereo not drawn) [Example 7.18, 3-(2-Chloro-6-methyl-4-pyridyl)-2-(3-cyanophenyl)-N-[(3-methyl-3-piperidyl)methyl]pyrazolo[1,5-a]pyrimidine-5-carboxamide]	> 1000 nM	14 nM	470 nM	20 nM	1 nM	19 nM
Cc1cc(-c2c(-c3cccc(C#N)c3)nn3ccc(C(=O)NCC(C)(C)O)nc23)cc(C#N)n1 [Example 12.8, 3-(2-Cyano-6-methyl-4-pyridyl)-2-(3-cyanophenyl)-N-(2-hydroxy-2-methyl-propyl)pyrazolo[1,5-a]pyrimidine-5-carboxamide]	> 1000 nM	177 nM	350 nM	575 nM	3.4 nM	35 nM
Cc1cc(-c2c(-c3cccc(C#N)c3)nn3ccc(C(=O)NCC(C)(C)O)nc23)cc(Cl)n1 [Example 5.2]	> 1000 nM	24 nM	280 nM	294 nM	0.2 nM	4 nM

Second part, led by results:

Ki [1]	Ki [2]	IC50 [3]	Ki [4]	Ki [5]	SMILES	IC50 (human PBMCs)
2430 nM	10 nM	1870 nM	192 nM	2.6 nM	Cc1cc(-c2c(-c3cccc(C#N)c3)nn3ccc(N[C@H]4C[C@H](O)C4)nc23)cc(Cl)n1 [Example 2.18]	46 nM
> 1000 nM	32 nM	1930 nM	249 nM	2.8 nM	Cc1cc(-c2c(-c3cccc(C#N)c3)nn3ccc(C(=O)N[C@H]4CC[C@H](N)C4)nc23)cc(Cl)n1 [Example 7.14, 3-(2-Chloro-6-methyl-4-pyridyl)-2-(3-cyanophenyl)-N-[(1S,3S)-3-aminocyclopentyl]pyrazolo[1,5-a]pyrimidine-5-carboxamide]	142 nM
> 1000 nM	14 nM	750 nM	99 nM	1.8 nM	CC(=O)Nc1ccn2nc(-c3cccc(C#N)c3)c(-c3cc(C)nc(Cl)c3)c2n1 [Example 94.1, N-[3-(2-Chloro-6-methyl-4-pyridyl)-2-(3-cyanophenyl)pyrazolo[1,5-a]pyrimidin-5-yl]acetamide]	26 nM
1470 nM	37 nM	20 nM	107 nM	0.4 nM	Cc1cc(-c2c(-c3cccc(C#N)c3)nn3ccc(C(=O)N[C@@H](C)C(C)(C)O)nc23)cc(C)n1 [Example 92, 2-(3-Cyanophenyl)-3-(2,6-dimethyl-4-pyridyl)-N-[(1S)-2-hydroxy-1,2-dimethyl-propyl]pyrazolo[1,5-a]pyrimidine-5-carboxamide]	4 nM
> 1000 nM	9 nM	250 nM	37 nM	2.2 nM	Cc1cc(-c2c(-c3cccc(C#N)c3)nn3ccc(N)nc23)cc(C)n1 [Example 1.6, 3-[5-amino-3-(2,6-dimethyl-4-pyridyl)pyrazolo[1,5-a]pyrimidin-2-yl]benzonitrile]	57 nM
> 1000 nM	2 nM	2820 nM	53 nM	0.7 nM	CCN1CCC(Nc2ccn3nc(-c4cccc(C#N)c4)c(-c4cc(C)nc(Cl)c4)c3n2)CC1 [Example 2.4]	32 nM
> 1000 nM	111 nM	30 nM	398 nM	1.2 nM	Cc1cc(-c2c(-c3cccc(C#N)c3C)nn3ccc(C(=O)N[C@@H](C)C(C)(C)O)nc23)cc(C)n1 [Example 104.1, 2-(3-Cyano-2-methyl-phenyl)-3-(2,6-dimethyl-4-pyridyl)-N-[(1S)-2-hydroxy-1,2-dimethyl-propyl]pyrazolo[1,5-a]pyrimidine-5-carboxamide]	4 nM
2360 nM	2 nM	460 nM	17 nM	1.5 nM	Cc1cc(-c2c(-c3cccc(C#N)c3)nn3ccc(N)nc23)cc(C(F)F)n1 [Example 26.1, 3-[5-Amino-3-[2-(difluoromethyl)-6-methyl-4-pyridyl]pyrazolo[1,5-a]pyrimidin-2-yl]benzonitrile]	32 nM

Reference: patent publication US20230203041A1, “ANTAGONISTS OF THE ADENOSINE A2A RECEPTOR” (AdoRx Therapeutics Limited, priority 2020, published 2023)
